Our source for the IC50 values is patent publication US11566007B2, “Ras inhibitors” (Revolution Medicines, Inc., priority 2019, dated 2023).

Common to all, as to type: biochemical
For assay [1], the target named is KRAS G12S (Homo sapiens (Human), UniProt P01116+P62937, G12S). Description: Ras-Raf (BRAF RBD) disruption / FRET / MOA assay, KRAS G12S. The following applies: Ras-Raf disruption/FRET/MOA assay; class symbols; read-out: KRAS G12S FRET data IC50. The method, boiled down: (§1)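 TR-FRET read-out: a drop in ratio relative to DMSO wells marks disruption of the Ras:RAF complex, reported as IC50. Compounds (3-fold series, 10 points, top 30 μM final) incubated 3 h at 25° C before Eu-anti-His 10 nM and APC-anti-GST 50 nM, 1.5 h more.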
Chain of KRAS G12S (P01116-2 other isoform, or with tags, fused parts or gaps G12S): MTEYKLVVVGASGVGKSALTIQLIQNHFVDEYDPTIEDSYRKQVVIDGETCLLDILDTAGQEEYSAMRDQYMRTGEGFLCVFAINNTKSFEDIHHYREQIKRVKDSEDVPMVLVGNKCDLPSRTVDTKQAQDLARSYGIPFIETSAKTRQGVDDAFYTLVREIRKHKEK
Chain of KRAS G12S (P62937 whole entry): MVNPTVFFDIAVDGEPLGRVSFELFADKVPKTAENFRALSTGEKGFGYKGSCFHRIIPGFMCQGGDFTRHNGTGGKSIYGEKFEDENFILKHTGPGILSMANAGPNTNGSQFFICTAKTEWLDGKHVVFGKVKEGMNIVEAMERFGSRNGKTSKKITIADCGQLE

For assay [2], the target named is NRAS G12C (Homo sapiens (Human), UniProt P01111+P62937, G12C). Description: Ras-Raf (BRAF RBD) disruption / FRET / MOA assay, NRAS G12C. As to conditions: read-out: IC50* NRAS G12C FRET data. The method, boiled down:
as §1

Assay [3] has as its target KRAS G12D (Homo sapiens (Human), UniProt P01116+P62937, G12D). Description: Ras-Raf (BRAF RBD) disruption / FRET / MOA assay, KRAS G12D. The following applies: Ras-Raf disruption/FRET/MOA assay; class symbols; read-out: KRAS G12D FRET data IC50. The method, boiled down:
as §1

In assay [4] the target is KRAS G12V (Homo sapiens (Human), UniProt P01116+P62937, G12V). Description: Ras-Raf (BRAF RBD) disruption / FRET / MOA assay, KRAS G12V. As to conditions: read-out: IC50* KRAS G12V FRET data. The method, boiled down: as §1
Chain of KRAS G12V (P01116-2 other isoform, or with tags, fused parts or gaps G12V): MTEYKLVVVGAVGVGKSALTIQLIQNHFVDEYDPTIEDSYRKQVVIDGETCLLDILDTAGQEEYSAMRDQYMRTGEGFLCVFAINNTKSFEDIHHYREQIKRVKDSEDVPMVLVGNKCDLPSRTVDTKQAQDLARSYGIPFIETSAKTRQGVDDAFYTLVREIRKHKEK
Chain of KRAS G12V (P62937 whole entry): as the sequence (P62937 whole entry) above
Assay [5] addresses NRAS Q61K (Homo sapiens (Human), UniProt P01111+P62937, Q61K). Description: Ras-Raf (BRAF RBD) disruption / FRET / MOA assay, NRAS Q61K. As to conditions: NRAS Q61K; Ras-Raf disruption/FRET/MOA assay; read-out: IC50* NRAS Q61K FRET data. The method, boiled down: (§2)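 Compounds were tested as a 10-point 3-fold dilution series from 30 μM final for their ability to drive ternary complex formation between nucleotide-loaded Ras and cyclophilin A, displacing the BRAF RBD. After 3 h at 25° C., anti-His Eu-W1024 (10 nM) and anti-GST allophycocyanin (50 nM) were added for 1.5 h. A TR-FRET ratio decrease versus DMSO gave IC50.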

The target of assay [6] is K-Ras G12C (Homo sapiens (Human), UniProt P01116+P62937, G12C). Description: Ras-Raf (BRAF RBD) disruption / FRET / MOA assay, KRAS G12C. As to conditions: KRAS G12C; Ras-Raf disruption/FRET/MOA assay; read-out: IC50* KRAS G12C FRET data. The method, boiled down:
as §1

In assay [7] the target is KRAS G13D (Homo sapiens (Human), UniProt P01116+P62937, G13D). Description: Ras-Raf (BRAF RBD) disruption / FRET / MOA assay, KRAS G13D. As to conditions: read-out: IC50* KRAS G13D FRET data. The method, boiled down:
as §1

Assay [8] addresses NRAS WT (Homo sapiens (Human), UniProt P01111+P62937). Description: Ras-Raf (BRAF RBD) disruption / FRET / MOA assay, NRAS WT. As to conditions: read-out: IC50* NRAS WT FRET data. The method, boiled down: as §2
The target of assay [9] is KRAS Q61H (Homo sapiens (Human), UniProt P01116+P62937, Q61H). Description: Ras-Raf (BRAF RBD) disruption / FRET / MOA assay, KRAS Q61H. As to conditions: Ras-Raf disruption/FRET/MOA assay; class symbols; read-out: KRAS Q61H FRET data IC50. The method, boiled down:
as §2

A value given as a limit tells only on which side of the number the result lay.

Chain of KRAS G12D (P01116-2 other isoform, or with tags, fused parts or gaps G12D): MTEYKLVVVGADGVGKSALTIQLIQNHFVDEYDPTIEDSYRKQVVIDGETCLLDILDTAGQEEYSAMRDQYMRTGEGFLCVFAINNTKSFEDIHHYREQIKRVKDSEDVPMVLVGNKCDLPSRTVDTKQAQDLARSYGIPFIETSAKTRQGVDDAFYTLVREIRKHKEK
Chain of KRAS G12D (P62937 whole entry): as the sequence (P62937 whole entry) above
Chain of NRAS WT (P01111 whole entry): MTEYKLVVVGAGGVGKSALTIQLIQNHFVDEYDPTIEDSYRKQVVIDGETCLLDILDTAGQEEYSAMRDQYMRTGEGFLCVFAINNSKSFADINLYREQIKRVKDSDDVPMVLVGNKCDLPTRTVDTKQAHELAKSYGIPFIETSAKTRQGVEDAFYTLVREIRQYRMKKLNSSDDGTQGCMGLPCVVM
Chain of NRAS WT (P62937 whole entry): as the sequence (P62937 whole entry) above
Chain of NRAS G12C (P01111 whole entry G12C): as the sequence (P01111 whole entry) above, with G12C counted along it
Chain of NRAS G12C (P62937 whole entry): as the sequence (P62937 whole entry) above
Chain of K-Ras G12C (P01116-2 other isoform, or with tags, fused parts or gaps G12C): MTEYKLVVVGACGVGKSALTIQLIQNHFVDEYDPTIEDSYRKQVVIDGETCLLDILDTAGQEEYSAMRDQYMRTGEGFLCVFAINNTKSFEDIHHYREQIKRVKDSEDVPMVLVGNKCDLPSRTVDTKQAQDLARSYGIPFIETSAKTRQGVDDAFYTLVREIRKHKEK
Chain of K-Ras G12C (P62937 whole entry): as the sequence (P62937 whole entry) above
Chain of KRAS G13D (P01116-2 other isoform, or with tags, fused parts or gaps G13D): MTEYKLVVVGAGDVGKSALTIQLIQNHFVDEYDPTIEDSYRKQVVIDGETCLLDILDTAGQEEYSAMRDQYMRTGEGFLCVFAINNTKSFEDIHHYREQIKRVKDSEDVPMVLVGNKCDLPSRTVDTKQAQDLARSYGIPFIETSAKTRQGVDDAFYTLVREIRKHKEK
Chain of KRAS G13D (P62937 whole entry): as the sequence (P62937 whole entry) above
Chain of KRAS Q61H (P01116-2 other isoform, or with tags, fused parts or gaps Q61H): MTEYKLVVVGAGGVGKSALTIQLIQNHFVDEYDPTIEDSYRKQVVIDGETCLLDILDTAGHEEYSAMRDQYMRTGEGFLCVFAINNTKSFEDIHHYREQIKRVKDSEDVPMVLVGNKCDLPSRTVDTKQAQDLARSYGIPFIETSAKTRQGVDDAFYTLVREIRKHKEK
Chain of KRAS Q61H (P62937 whole entry): as the sequence (P62937 whole entry) above
Chain of NRAS Q61K (P01111 whole entry Q61K): as the sequence (P01111 whole entry) above, with Q61K counted along it
Chain of NRAS Q61K (P62937 whole entry): as the sequence (P62937 whole entry) above

By IC50 is commonly meant the midpoint of a concentration-inhibition curve. On to `C=CC(=O)N1CC[C@H](C(=O)N(C)[C@H](C(=O)N[C@H]2CC3=NC=C(O3)c3ccc4c(c3)c(c(-c3cccnc3[C@H](C)OC)n4CC)CC(C)(C)COC(=O)[C@@H]3CCCN(N3)C2=O)C(C)C)C1` (atropisomer, axis not shown) [Example A278], for which the IC50 is 1 to 10 µM in assay [1]; 0.1 to 1 µM in assay [2]; over 10 µM in [3]; 1 to 10 µM in assay [4]; 1 to 10 µM in assay [5]; 0.1 to 1 µM in assay [6]. For the same compound, the IC50 in [7], in assay [8] and in [9] was 1 to 10 µM each time.

`CCn1c(-c2cccnc2[C@H](C)OC)c2c3cc(ccc31)-c1cccc(c1)C[C@H](NC(=O)[C@H](C(C)C)N(C)C(=O)[C@H]1CCN(C(=O)C#CC(C)(C)N(C)C)C1)C(=O)N1CCC[C@H](N1)C(=O)OCC(C)(C)C2` (atropisomer, axis not shown) [Example A290]: the IC50 in assay [1] is 1 to 10 µM; in [2] it was under 0.01 µM; in [3] it was over 10 µM; in assay [4], 1 to 10 µM; in assay [5] it was 1 to 10 µM; in assay [6], under 0.01 µM. In addition, the IC50 in assay [7], in [8] and in [9] was 1 to 10 µM each time.

For the compound `C=CS(=O)(=O)N1CCC2(CCN([C@H](C(=O)N[C@H]3Cc4cc(O)cc(c4)-c4ccc5c(c4)c(c(-c4cccnc4[C@H](C)OC)n5CC)CC(C)(C)COC(=O)[C@@H]4CCCN(N4)C3=O)C(C)C)C2=O)CC1` (atropisomer, axis not shown) [Example A299], the IC50 in assay [1] is 0.01 to 0.1 µM; in assay [2], under 0.01 µM; in [3], 1 to 10 µM; in assay [4], 0.1 to 1 µM; in [5], 0.01 to 0.1 µM; in [6], under 0.01 µM. Besides, the IC50 in assay [7] was 0.1 to 1 µM; in assay [8] it was 0.01 to 0.1 µM; in assay [9], under 0.01 µM.

As to `CO[C@@H](C)c1ncccc1-c1c2c3cc(ccc3n1CC(F)(F)F)-c1csc(n1)C[C@H](NC(=O)[C@@H](COC1CN(C(=O)C#CC(C)(C)N(C)C)C1)C(C)C)C(=O)N1CCC[C@H](N1)C(=O)OCC(C)(C)C2` (atropisomer, axis not shown) [Example A343], the half-maximal inhibitory concentration (IC50) is 1 to 10 µM in assay [1]; under 0.01 µM in assay [2]; over 10 µM in [3]; 1 to 10 µM in assay [4]; 1 to 10 µM in [5]; under 0.01 µM in assay [6]. The IC50 is over 10 µM in assay [7], 1 to 10 µM in assay [8] and 1 to 10 µM in assay [9].

For the compound `C=CC(=O)N1CC[C@H](C(=O)N(C)[C@H](C(=O)N[C@H]2Cc3cc(cc(C(F)F)c3)-c3ccc4c(c3)c(c(-c3cc(N5CCN(C)CC5)cnc3[C@H](C)OC)n4CC(F)(F)F)CC(C)(C)COC(=O)[C@@H]3CCCN(N3)C2=O)C(C)C)C1` (atropisomer, axis not shown) [Example A357], the IC50 in assay [1] lay within 0.1 to 1 µM; in [2], 0.1 to 1 µM; in assay [3] it was 1 to 10 µM; in [4], 0.1 to 1 µM; in assay [5] it was 1 to 10 µM; in [6], 0.1 to 1 µM. Besides, the IC50 in assay [7], in assay [8] and in assay [9] was 0.1 to 1 µM throughout.

Regarding `CO[C@@H](C)c1ncccc1-c1c2c3cc(ccc3n1CC(F)(F)F)-c1cccc(c1)C[C@H](NC(=O)[C@@H](COC1CN(C(=O)C#CC(C)(C)N(C)C)C1)C(C)C)C(=O)N1CCC[C@H](N1)C(=O)OCC(C)(C)C2` (atropisomer, axis not shown) [Example A376], the IC50 in assay [1] is 1 to 10 µM; in [2] it was under 0.01 µM; in [3], over 10 µM; in assay [4], 1 to 10 µM; in [5] it was over 10 µM; in assay [6], under 0.01 µM. Also, the IC50 is over 10 µM in assay [7], 1 to 10 µM in [8] and 1 to 10 µM in assay [9].

For `C=CC(=O)N1C[C@H](C)N(C(=O)N(C)[C@H](C(=O)N[C@H]2Cc3nc(cs3)-c3ccc4c(c3)c(c(-c3cccnc3[C@H](C)OC)n4CC)CC(C)(C)COC(=O)[C@@H]3CCCN(N3)C2=O)C(C)C)C[C@@H]1C` (atropisomer, axis not shown) [Example A385], the IC50 lay within 0.01 to 0.1 µM in assay [1]; 0.01 to 0.1 µM in [2]; 0.1 to 1 µM in assay [3]; 0.1 to 1 µM in assay [4]; 0.01 to 0.1 µM in [5]; 0.01 to 0.1 µM in assay [6]. Moreover, the IC50 in assay [7] lay within 0.1 to 1 µM; in assay [8] it was 0.01 to 0.1 µM; in assay [9], 0.01 to 0.1 µM.

For `C=CC(=O)N1CCC12CN(C(=O)N(C)[C@H](C(=O)N[C@H]1Cc3nc(cs3)-c3ccc4c(c3)c(c(-c3cccnc3[C@H](C)OC)n4CC)CC(C)(C)COC(=O)[C@@H]3CCCN(N3)C1=O)C(C)C)C2` (atropisomer, axis not shown) [Example A393], the IC50 in assay [1] was in the range of 0.1 to 1 µM; in assay [2] it was 0.1 to 1 µM; in [3], 1 to 10 µM; in [4] it was 1 to 10 µM; in [5], 0.1 to 1 µM; in assay [6] it was 0.1 to 1 µM. Besides, the IC50 lay within 1 to 10 µM in assay [7], 0.1 to 1 µM in [8] and 0.1 to 1 µM in [9].

For the compound `CCn1c(-c2cccnc2[C@H](C)OC)c2c3cc(ccc31)-c1cc(F)cc(c1)C[C@H](NC(=O)[C@@H](COC1CN(C(=O)C#CC(C)(C)N(C)C)C1)C(C)C)C(=O)N1CCC[C@H](N1)C(=O)OCC(C)(C)C2` (atropisomer, axis not shown) [Example A403], the IC50 was over 10 µM in [1]; 0.01 to 0.1 µM in assay [2]; over 10 µM in [3]; 1 to 10 µM in assay [4]; over 10 µM in [5]; under 0.01 µM in [6]. In addition, the IC50 was over 10 µM in assay [7], over 10 µM in [8] and 1 to 10 µM in assay [9].

`C=CC(=O)N1CC2(CCN2C(=O)N(C)[C@H](C(=O)N[C@H]2Cc3nc(cs3)-c3ccc4c(c3)c(c(-c3cccnc3[C@H](C)OC)n4CC)CC(C)(C)COC(=O)[C@@H]3CCCN(N3)C2=O)C(C)C)C1` (atropisomer, axis not shown) [Example A407]: the half-maximal inhibitory concentration (IC50) in [1] is 0.1 to 1 µM; in [2] it was under 0.01 µM; in [3] it was 0.1 to 1 µM; in assay [4], 0.1 to 1 µM; in assay [5], 0.01 to 0.1 µM; in [6], under 0.01 µM. In addition, the IC50 in [7] lay in the range of 0.1 to 1 µM; in assay [8] it was 0.01 to 0.1 µM; in assay [9], 0.01 to 0.1 µM.

For `C=CC(=O)N1CC[C@H](C(=O)N(C)[C@H](C(=O)N[C@H]2CC3=NN=C(O3)c3ccc4c(c3)c(c(-c3cccnc3[C@H](C)OC)n4CC)CC(C)(C)COC(=O)[C@@H]3CCCN(N3)C2=O)C(C)C)C1` (atropisomer, axis not shown) [Example A447], the IC50 in assay [1] is 1 to 10 µM; in assay [2] it was 0.1 to 1 µM; in assay [3] it was over 10 µM; in assay [4], 1 to 10 µM; in [5], over 10 µM; in [6], 0.1 to 1 µM. Further, the IC50 was over 10 µM in [7], 1 to 10 µM in assay [8] and 1 to 10 µM in [9].

As to `C=CC(=O)Nc1ncc(C(=O)N(C)[C@H](C(=O)N[C@H]2Cc3cccc(c3)-c3ccc4c(c3)c(c(-c3cccnc3[C@H](C)OC)n4CC)CC(C)(C)COC(=O)[C@@H]3CCCN(N3)C2=O)C(C)C)n1C` (atropisomer, axis not shown) [Example A474], the IC50 was 1 to 10 µM in assay [1]; under 0.01 µM in assay [2]; over 10 µM in [3]; 1 to 10 µM in assay [4]; 1 to 10 µM in [5]; under 0.01 µM in [6]. The figures for the IC50 in assay [7], in [8] and in [9] were 1 to 10 µM, 1 to 10 µM and 0.1 to 1 µM, respectively.

For the compound `C=CC(=O)N1CC[C@H](C(=O)N2CC[C@H](C)[C@H]2C(=O)N[C@H]2Cc3cccc(c3)-c3ccc4c(c3)c(c(-c3cccnc3[C@H](C)OC)n4CC)CC(C)(C)COC(=O)[C@@H]3CCCN(N3)C2=O)C1` (atropisomer, axis not shown) [Example A494], the IC50 in assay [1] was over 10 µM; in [2], 0.1 to 1 µM; in [3], over 10 µM; in assay [4], over 10 µM; in assay [5], 1 to 10 µM; in [6], 0.1 to 1 µM. The IC50 is over 10 µM in assay [7], 1 to 10 µM in assay [8] and 0.1 to 1 µM in assay [9].
